# Test results: ChEMBL document CHEMBL1155574, “Hemolytic polar steroidal constituents of the starfish Aphelasterias japonica” (J Nat Prod, 2000)
# Test: Toxicity against mouse erythrocytes assessed as hemolytic activity
# Assay type: cell-based, Erythrocyte
# Details: read-out: ED50 (the source's name)
row,SMILES,HC50 [µM]
1,CC(=O)[C@H]1CC[C@H]2[C@@H]3C[C@H](O)[C@H]4C[C@@H](OS(=O)(=O)O)CC[C@]4(C)C3=CC[C@]12C,> 500
2,CC(=O)[C@H]1CC[C@H]2[C@@H]3C[C@H](O[C@H]4O[C@@H](C)[C@H](OS(=O)(=O)O)[C@@H](O)[C@@H]4O)[C@H]4C[C@@H](OS(=O)(=O)O)CC[C@]4(C)C3=CC[C@]12C [CHELIFEROSIDE L1],175
3,CC(C)[C@H](O)C(=O)C[C@@H](C)[C@H]1CC[C@H]2[C@@H]3C[C@H](O[C@H]4O[C@@H](C)[C@H](OS(=O)(=O)O)[C@@H](O)[C@@H]4O)[C@H]4C[C@@H](OS(=O)(=O)O)CC[C@]4(C)C3=CC[C@]12C [APHELASTEROSIDE C],190
4,CC(C)[C@H](O)C(=O)C[C@@H](C)[C@H]1CC[C@H]2[C@@H]3C[C@H](O)[C@H]4C[C@@H](OS(=O)(=O)O)CC[C@]4(C)C3=CC[C@]12C [APHELAKETOTRIOL],40
5,CC(C)CC(=O)C[C@](C)(O)[C@H]1CC[C@H]2[C@@H]3C[C@H](O)[C@H]4C[C@@H](OS(=O)(=O)O)CC[C@]4(C)C3=CC[C@@]21C [3-O-SULFOTHORNASTEROL A],110
6,CC(=O)[C@H]1CC[C@H]2[C@@H]3C[C@H](O[C@H]4O[C@@H](C)[C@H](O)[C@@H](O)[C@@H]4O)[C@H]4C[C@@H](OS(=O)(=O)O)CC[C@]4(C)C3=CC[C@]12C [FORBESIDE E3],330
